From PMC9798632, “Tailor-made alkaliphilic and thermostable fungal laccases for industrial wood processing” (Biotechnology for Biofuels and Bioproducts, 2022) come the findings set out here.

Holding throughout (experiment): spectrophotometric oxidation at […] nm, hyperbolic fit
What all share (format): biochemical

Test [1] concerns the target T1, RY2 laccase (parent of Li9, Li10, Li11, C-LeB, Mol2, Mol3) (basidiomycete PM1, UniProt Q12571, N284V/F413N/F417I/F475P/A479L/F481M, form not given).
T1 construct: one polypeptide; engineered from 7D5 (PDB 6H5Y, used as model template), which came from DNA shuffling of evolved PM1L and P. cinnabarinus laccases; RY2 residues: D263 (from N263), P454, S207, S291, V413, D457, A461, I468; evolved alpha-factor leader a9H2 as signal peptide; host S. cerevisiae BJ5465, purified by HPLC
Conditions: 100 mM Tris-HCl pH 8, room temperature.

Test [2] has as its target T2, RY2 laccase (parent of Li9, Li10, Li11, C-LeB, Mol2, Mol3) (basidiomycete PM1, UniProt Q12571, N284V/F413N/F417I/V445T/S450T/D462N/F475P/A479L/F481M, form not given).
T2 construct: one polypeptide; engineered from 7D5 (PDB 6H5Y, used as model template), which came from DNA shuffling of evolved PM1L and P. cinnabarinus laccases; RY2 residues: D263 (from N263), P454, S207, S291, V413, D457, A461, I468; evolved alpha-factor leader a9H2 as signal peptide; host S. cerevisiae BJ5465, purified by HPLC
Conditions: 100 mM Tris-HCl pH 8, room temperature.

For test [3], the target named is T3, RY2 laccase (parent of Li9, Li10, Li11, C-LeB, Mol2, Mol3) (basidiomycete PM1, UniProt Q12571, N284D/F475P, form not given).
T3 construct: one polypeptide; engineered from 7D5 (PDB 6H5Y, used as model template), which came from DNA shuffling of evolved PM1L and P. cinnabarinus laccases; RY2 residues: D263 (from N263), P454, S207, S291, V413, D457, A461, I468; evolved alpha-factor leader a9H2 as signal peptide; host S. cerevisiae BJ5465, purified by HPLC
T3 sequence (Q12571 entry or part of it N284D/F475P, form open): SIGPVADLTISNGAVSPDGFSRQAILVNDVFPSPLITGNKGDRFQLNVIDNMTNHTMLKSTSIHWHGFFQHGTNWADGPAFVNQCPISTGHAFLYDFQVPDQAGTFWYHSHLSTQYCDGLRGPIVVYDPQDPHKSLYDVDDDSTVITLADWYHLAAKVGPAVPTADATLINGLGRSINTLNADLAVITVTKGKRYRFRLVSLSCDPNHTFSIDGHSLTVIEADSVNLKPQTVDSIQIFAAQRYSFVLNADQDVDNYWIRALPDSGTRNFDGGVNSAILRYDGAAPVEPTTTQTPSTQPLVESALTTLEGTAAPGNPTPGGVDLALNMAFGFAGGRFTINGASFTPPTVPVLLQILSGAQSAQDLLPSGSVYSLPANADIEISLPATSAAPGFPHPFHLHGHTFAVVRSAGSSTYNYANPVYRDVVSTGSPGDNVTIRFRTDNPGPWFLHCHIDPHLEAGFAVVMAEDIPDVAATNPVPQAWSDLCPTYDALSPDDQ
Conditions: pH 5, room temperature.

In test [4] the target is T4, RY2 laccase (parent of Li9, Li10, Li11, C-LeB, Mol2, Mol3) (basidiomycete PM1, UniProt Q12571, N284D/F413N/F417I/F475P/F481M, form not given).
T4 construct: one polypeptide; engineered from 7D5 (PDB 6H5Y, used as model template), which came from DNA shuffling of evolved PM1L and P. cinnabarinus laccases; RY2 residues: D263 (from N263), P454, S207, S291, V413, D457, A461, I468; evolved alpha-factor leader a9H2 as signal peptide; host S. cerevisiae BJ5465, purified by HPLC
T4 sequence (Q12571 entry or part of it N284D/F413N/F417I/F475P/F481M, form open): as the sequence (Q12571 entry or part of it N284D/F475P, form open) above, with F392N, F396I, F460M counted along it
Conditions: 100 mM Tris-HCl pH 8, room temperature.

Test [5] has as its target T5, RY2 laccase (parent of Li9, Li10, Li11, C-LeB, Mol2, Mol3) (basidiomycete PM1, UniProt Q12571, N284V/F413N/F417I/F475P/F481M, form not given).
T5 construct: one polypeptide; engineered from 7D5 (PDB 6H5Y, used as model template), which came from DNA shuffling of evolved PM1L and P. cinnabarinus laccases; RY2 residues: D263 (from N263), P454, S207, S291, V413, D457, A461, I468; evolved alpha-factor leader a9H2 as signal peptide; host S. cerevisiae BJ5465, purified by HPLC
Conditions: 100 mM Tris-HCl pH 8, room temperature.

T1 sequence (Q12571 entry or part of it N284V/F413N/F417I/F475P/A479L/F481M, form open): as the sequence (Q12571 entry or part of it N284D/F475P, form open) above, with D263V, F392N, F396I, A458L, F460M counted along it
T5 sequence (Q12571 entry or part of it N284V/F413N/F417I/F475P/F481M, form open): as the sequence (Q12571 entry or part of it N284D/F475P, form open) above, with D263V, F392N, F396I, F460M counted along it
T2 sequence (Q12571 entry or part of it N284V/F413N/F417I/V445T/S450T/D462N/F475P/A479L/F481M, form open): as the sequence (Q12571 entry or part of it N284D/F475P, form open) above, with D263V, F392N, F396I, V424T, S429T, D441N, A458L, F460M counted along it

By Km is commonly meant the substrate concentration at which the rate is half of its maximum. As for `COc1cccc(OC)c1O` [2,6-dimethoxyphenol], the Km was determined as 1700 ± 100 µM in test [1]; 1700 ± 200 µM in test [2]; 260 ± 40 µM in test [3]; 20000 ± 2400 µM in test [4]; 1500 ± 100 µM in test [5].
